From paper PMC5025856, “A Novel Assay for Screening Inhibitors Targeting HIV Integrase LEDGF/p75 Interaction Based on Ni^2+ Coated Magnetic Agarose Beads” (Scientific Reports, 2016)
Where two headings read alike, the source gives them in different places.

Experiments:
[1] = target: T1, PPI between HIV-1 IN CCD and LEDGF/p75 IBD (Homo sapiens, UniProt O75475); experiment: IN CCD-LEDGF/p75 IBD PPI assay based on Ni-NTA magnetic agarose beads; format: binding
T1 construct: The IN CCD protein used contained HIV IN residues 50–212 fused with an C-terminal His6-tag; a fusion of LEDGF/p75 residues 347–471 with the N-terminal GST-tag; made in house; host or cells: bacterial expression vectors pET28a (IN CCD) and pGEX-4T-1 (IBD)
Protocol: In the assay, GST–tagged LEDGF/p75 IBD (yellow) is mixed with His6-tagged IN CCD (green) at the desired concentrations. After incubation at room temperature, a double-tagged PPI complex with N-terminal GST-tag and C-terminal His6-tag is established between two protein partners. The PPI complex is captured by Ni^2+-coated magnetic beads (red) through His6-tag, followed by the addition of alkaline phosphatase conjugated anti-GST antibody (dark red). Therefore, the product could be measured by the alkaline phosphatase conjugated-coupled enzyme reaction (Fig. 1A).
The IN CCD-LEDGF/p75 IBD interaction assay was developed based on Ni-NTA Magnetic Agarose Beads (BEAVER Nano-technologies Co., Ltd. Suzhou, China). The assay was optimized for use in 96-well nonbinding surface microplates (Corning, New York, USA) in a final volume of 100 μl per well. Briefly, the assay works as follows. Compounds and proteins were diluted to 10× and 5× working solutions in the 1× assay buffer (25 mM Tris-HCl, pH 7.4, 150 mM NaCl, 1 mM MgCl2, 0.05% BSA[v/w]) respectively. Firstly, 10 μl compound dilution, 50 μl 1× buffer, 20 μl each of protein dilutions were pipetted into the wells. The plate was sealed and left to incubate at 200 rpm for 3 h at RT. Secondly, 10 μl of Ni-NTA Magnetic Agarose Beads were added followed by incubating at 900 rpm for 30 min at RT. Thirdly, the wells holding the mixture were placed on a magnetic concentrator, the supernatant was discarded, and the wells were washed 3 times with 200 μl wash buffer (50 mM sodium phosphate, pH 7.4, 150 mM NaCl, 0.005% tween-20[v/v], 20 mM imidazole). Fourthly, the wells were incubated with 100 μl of a 1:4000 solution of mouse anti-GST antibody (Sigma, USA) in antibody dilution buffer (50 mM Sodium Phosphate, pH 7.4, 150 mM NaCl, 0.005% Tween-20[v/v], 0.5%[w/v] BSA) at 900 rpm for 30 min at 37 °C, followed by washing three times. Fifthly, the wells were incubated with 100 μl of a 1:5000 solution of rabbit anti-mouse IgG alkaline phosphatase conjugated antibody (Sigma, USA) in antibody dilution buffer at 900 rpm for 30 min at 37 °C, followed by washing 3 times. Lastly, the color reaction was developed with 100 μl substrate buffer (10 mM diethanolamine, pH 9.8, 0.5 mM MgCl2, 8 mM p-NPP) for 30 min at 37 °C. The absorbance ([…]) of each well was measured in an Enspire multimode reader (PerkinElmer, USA). The reproducibility, signal stability, and robustness of this PPI assay were determined to ensure its compatible for HTS. Furthermore, IL23, an IN CCD-LEDGF/p75 IBD PPI inhibitor, was used to validate the assay efficiency.
In total, 1000 compounds selected at random from ‘The Spectrum Collection’ were purchased from National compound resource center. The library, which is composed of 2,320 compounds in 10 mM DMSO solution, lists primarily FDA-approved human therapeutic drugs, drug-like compounds, and natural products. Each compound was diluted in DMSO to reach a concentration of 300 μM, which was used as the 10× compound stock. In all screening campaigns, the negative control was based on the use of PPI binding mutant controls (single-point mutation) that would prevent the PPI from forming, and the positive control contained 10% (v/v) DMSO only. The negative and positive control with 8 replicates wells each located randomly among the 96 wells of each plate.
The z′ factor, signal-to-noise ratio (S/N), signal-to-background ratio (S/B), signal window (SW), and coefficient of variation (CV) were calculated and then compared with the minimum pass criteria (z′ >0.5, S/N>10, S/B > 3, SW >2, CV < 20%)[39][40][41][42]. The “hits” for PPI assays were classified as compounds that led to more than 60% disruption of a PPI complex. All HTS data were processed using Excel (Microsoft Corp.) and visualized using Prism 5.0 (GraphPad Software).

His6-tagged GST protein = target: T2, His6-tagged GST protein (Schistosoma japonicum, UniProt P08515); experiment: Non-specificity counterscreen with His6-GST protein; conditions: dose-response, 10 nM His6-tagged GST protein
T2 construct: made in house; host or cells: bacterial expression vector pGEX-4T-1
Protocol: The false positive compound identified in this HTS may affect the assay by forming hydrogen bonds interaction with His6-tag of IN CCD or forming chelating complexes with Ni^2+-ion covering magnetic beads surface. […] Any compound that interfered with bead or with the His6-tag of double-tagged protein would result in a decreased signal in the counterscreen assay.
A counterscreen was carried out as described above, with the replacement of purified HIV-1 IN CCD and LEDGF/p75 IBD with 10 nM His6-tagged GST protein.

LEDGF/p75 = LEDGF/p75 (Homo sapiens, UniProt O75475); experiment: Biolayer interferometry (BLI) binding to LEDGF/p75; conditions: ForteBIO Octet, 1:1 Langmuir global fit, read-out: dissociation constant Kd
Protocol: Biolayer interferometry (BLI) was used to study the kinetics of dexlansoprazole binding to LEDGF/p75 on a ForteBio Octet, according to the manufacturer’s instructions and published methods. Streptavidin biosensors tips were pre-wetted with buffer and immobilized with biotinylated protein. The biosensors were then transferred into wells containing dexlansoprazole in serial dilutions from 32 μM to 1 μM concentrations. Protein–ligand binding was measured by monitoring the changes in the interferometric profile of the wavelength of light passing through the sensor. Binding curves were analyzed using ForteBIO software, which performs a global fit according to the 1:1 Langmuir model to obtain the kinetic rate constants for each set of interaction conditions.

cancer xenograft models = system: cancer xenograft models; design: method as in PMID 25093583; conditions: primary screen hit in cancer xenograft models; cited from earlier work
[2] = target: HIV-1 integrase catalytic core domain (IN CCD), residues 50-212, F185K, C-terminal His6-tag (HIV-1); experiment: ELISA; ELISA-based magnetic bead assay: GST-IBD and His6-CCD mixed in solution (25 mM Tris-HCl pH 7.4, 150 mM NaCl, 1 mM MgCl2, 0.05% BSA, 3 h RT), complex captured on Ni-NTA magnetic agarose beads by the His6-tag, detected with anti-GST antibody and alkaline phosphatase conjugate, absorbance read-out (A405); optimal conditions, ratio 1:1
[3] = target: HIV-1 IN CCD W131E (residues 50-212, F185K, W131E), C-terminal His6-tag (HIV-1); experiment: as above
[4] = at 30 μM for each proton-pump inhibitor, PPI between LEDGF/p75 IBD and IN CCD, read-out: Inhibition (%)
[5] = IN CCD-LEDGF/p75 IBD PPI, magnetic-beads assay, dose response, read-out: IC50

| Molecule | inhibition at 30 µM [1, 4] [%] | IC50 [1, 5] [µM] | further results |
| --- | --- | --- | --- |
| Cc1c(OCC(F)(F)F)ccnc1C[S@@+]([O-])c1nc2ccccc2[nH]1 [Dexlansoprazole] | 75.2 | – | IC50 [1]: 4.8 µM; inhibition at 30 µM ([1]; confirmatory screening, triplicate, 30 μM, read-out: inhibitory rate): 90.3%; inhibitory activity against IN CCD-LEDGF/p75 IBD interaction (in words) ([1]; qualitative statement): moderate inhibitory activity; effect on the assay system (counterscreen) (His6-tagged GST protein): almost had no effect; Kd (LEDGF/p75): 0.33 µM; anti-cancer activity (cancer xenograft models): poor |
| COc1ccc2nc([S@@+]([O-])Cc3ncc(C)c(OC)c3C)[nH]c2c1 [Esomeprazole] | 22 | > 30 | – |
| Cc1c(OCC(F)(F)F)ccnc1C[S+]([O-])c1nc2ccccc2[nH]1 (centres unmarked) [Lansoprazole] | -86.2 | – | – |
| COc1ccc2[nH]c([S+]([O-])Cc3ncc(C)c(OC)c3C)nc2c1 (centres unmarked) [Omeprazole] | 26.2 | > 30 | – |
| COc1ccnc(C[S+]([O-])c2nc3ccc(OC(F)F)cc3[nH]2)c1OC (centres unmarked) [Pantoprazole] | -23.9 | – | – |
| COCCCOc1ccnc(C[S+]([O-])c2nc3ccccc3[nH]2)c1C (centres unmarked) [Rabeprazole] | 14.5 | > 30 | – |
| COc1ccc2[nH]c([S+]([O-])Cc3ncc(C)c(OC)c3C)nc2n1 (centres unmarked) [Tenatoprazole] | 33.6 | > 30 | – |
| LEDGF/p75 IBD D366N (residues 347-471), N-terminal GST-tag (from UniProt O75475 347-471) (domain or fragment) | – | – | A405 signal [2]: < 0.01 A405 |
| LEDGF/p75 integrase binding domain (LEDGF/p75 IBD), residues 347-471, N-terminal GST-tag (from UniProt O75475 347-471) (domain or fragment) | – | – | A405 signal [3]: < 0.01 A405; A405 signal [2]: 0.66 A405 |
